# Experiments:
# [1] = system: Sprague-Dawley rats; assay: Infarct volume after permanent (6 h) middle cerebral artery occlusion; format: in vivo, rat; settings: 0.1 or 1.0 mg/kg iv 30 min prior to 6 h permanent occlusion (no reperfusion)
# Source text: The detailed methodology for permanent middle cerebral artery occlusion (MCAO) and transient (I/R) occlusion of the middle cerebral artery has been published previously.^46 Briefly, animals were placed in a David Kopf stereotaxic frame (Tujunga, Calif.), and the right middle cerebral artery (MCA) approached through a rostral-caudal incision of the skin and frontalis muscle at the approximate level of bregma. Blood flow through the MCA was impeded by the placement of surgical suture behind the MCA at three designated positions along the exposed vessel. […] The concentration of 0.1 mg/kg represents the optimal dose of the compound of Formula (Ia), as determined above, and 1.0 mg/kg represents a 10-fold higher concentration of the optimal dose, as the optimal dose of 0.1 mg/kg was not effective in producing neuroprotection. […] At the end of each experiment in which infarct volume was measured, animals were transcardially perfused with PBS (0.1 M; 200 ml), the brains were removed and sliced into 1-mm coronal sections using a rat brain matrix (Harvard Apparatus, Holliston, Mass.). […] Infarct volumes were calculated with the use of scanned digital images of each brain section. The infarct area for both sides of each brain section was calculated using a computer-assisted imaging system (Scion, Frederick, Md.). […]
# [2] = system: Sprague-Dawley rats; assay: Blood pressure, heart rate and baroreceptor reflex sensitivity; format: in vivo, rat
# Method: Sprague-Dawley rats were used to study the effects of (Ia) on reperfusion injury following stroke in a rodent model. The rats were anesthetized, and injected with (la) (0.01-0.1 mg/kg). After 30 minutes, occlusion of the middle cerebral artery (MCA) was performed.
# All experiments were conducted on male Sprague-Dawley rats (total of 229 rats; 250-350 g; Charles River, Montreal, PQ, Canada). For all animals, food and tap water were available ad libitum. Rats were anesthetized with sodium thiobutabarbital (Inactin; Sigma-Aldrich; St. Louis, Mo.; 100 mg/kg ip), which provided a stable plane of anesthesia for the full duration of the experimental time period. To monitor blood pressure and heart rate, a polyethylene catheter (PE-50; Clay Adams, Parsippany, N.J.) was inserted into the right femoral artery. For intravenous administration of drugs, a second polyethylene catheter (PE-10; Clay Adams) was inserted into the right femoral vein. Arterial blood pressure was measured with a pressure transducer (Gould P23 ID, Cleveland, Ohio) connected to a Gould model 2200S polygraph. Heart rate was determined from the pulse pressure using a Gould tachograph (Biotach). […] An endotracheal tube was inserted to facilitate breathing. Body temperature was monitored and maintained at 37±1° C. using a Physitemp feedback system (Physitemp Instruments, Clifton, N.J.).
# To determine the effect of the compound of Formula (Ia) (0.1 mg/kg; 1 ml/kg; n=4) or vehicle (25% EtOH; 1 ml/kg; n=4) administration on baseline blood pressure and heart rate, continuous recordings of blood pressure and heart rate were taken prior to and following drug or vehicle administration. Further recordings of the parameters were made at 15, 30, 45, 60, 90, and 120 min following drug administration, at which time the experiment was terminated.
# To determine the effect of drug administration on autonomic reflex activation, the baroreceptor reflex was evoked using a bolus intravenous injection of the α-adrenergic receptor agonist, phenylephrine-hydrochloride (Sigma-Aldrich; 0.1 ml; 2.5 μg/ml iv). The ratio of the peak change in the magnitude of the reflex bradycardia to the magnitude of the phenylephrine-induced pressor response [ΔHR (heart rate)/ΔMAP (mean arterial pressure)] was used as a measure of baroreceptor reflex sensitivity (BRS). BRS was tested at 10 min and immediately prior to the compound of Formula (Ia) (0.1 mg/kg; 1 ml/kg; n=3) or vehicle (25% EtOH; 1 ml/kg; n=3) administration. BRS was then tested 15 and 30 min following drug administration (prior to MCAO), and then 5, 10, 20, and 30 min during MCAO (30 min MCAO), as well as 10, 20, 30, 60, 90, 120, 150, 210, 270, and 330 min following suture removal. The experiments were terminated after 5.5 h of reperfusion.
# [3] = 0.1 mg/kg iv 30 min prior to I/R, during 30 min MCAO and 5.5 h reperfusion
# [4] = 0.1 mg/kg iv, 2-h continuous recording, no stroke
smiles,measurement,setting,value
COc1cc(C(C)=O)ccc1OC(=O)CCCCC1CCSS1 (centres unmarked) [compound of Formula (Ia)],neuroprotection (infarct volume) in permanent MCAO,[1],did not produce neuroprotection
same,level of BRS depression during MCAO,[2]; 0.1 mg/kg iv 30 min prior to I/R,did not alter the level of BRS depression
same,mean arterial pressure compared with pre-MCAO values,[2]; [3],no significant differences
same,mean heart rate compared with pre-MCAO values,[2]; [3],no significant differences
same,mean baroreflex sensitivity (BRS),"[2]; 0.1 mg/kg iv 30 min prior to I/R, within 5 min of the beginning of MCAO, mean±SE",0.23±0.05 bpm/mmHg
same,mean HR vs vehicle,[2]; [4],did not significantly alter
same,mean arterial blood pressure vs vehicle,[2]; [4],did not significantly alter
same,systemic blood pressure,"[2]; Example 3, 0.01-0.1 mg/kg, measured continuously over 6 hour period",no change in systemic blood pressure
